Reference: patent US11000033B2, “Ketone or oxime compound, and herbicide” (NISSAN CHEMICAL CORPORATION, priority 2014, dated 2021)

What was measured:
Format in all cases: in vivo
[1] = tested on: Echinochloa oryzacola Vasing.; experiment: Test Example 1: herbicidal activity, application before weed generation in submerged conditions (symbol A); details: application herbicide amount 320 g/ha
Summary of the method: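 Steps: alluvial soil flooded to 4 cm; weed seeds sown together; rice seedlings (2.5 leaf) transplanted; diluted emulsion applied to water surface the same day as sowing; plants grown at 25–30 °C in greenhouse; herbicidal effect rated on a 0–5 scale at 3 weeks.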

Scirpus juncoides = experiment: Test Example 2: herbicidal activity, application during weed generation in submerged conditions (symbol B); details: Table 23; application herbicide amount 320 g/ha; grade 0-5 by criteria of Test Example 1
Summary of the method: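 Submerged alluvial soil (4 cm) sown with mixed seed; greenhouse 25–30° C. 1–2 leaf: diluted emulsion onto water surface, preset dose. Visual score, 3 wk.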

Cyperus difformis = experiment: Test Example 3: herbicidal effect by foliage application, Wagner pot (symbol E); details: application herbicide amount 320 g/ha
Summary of the method: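 Steps: fill pot with alluvial soil; add water to 0.1–0.5 cm depth; sow weed and rice seed; grow 14 days at 25–30 °C; spray diluted emulsion over the leaves; rate effect after 3 weeks.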

[2] = tested on: Echinochloa crus-galli var. crus-galli; experiment: Test Example 4: herbicidal effect by soil treatment (symbol H); details: for H: Echinochloa crus-galli var. crus-galli, herbicidal effect grade: 320 g/ha
Summary of the method: (§1)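 Seeds were sown in sterilized diluvial soil, covered with about 1.5 cm of soil, and the soil surface was sprayed with a water-diluted emulsion of the compound at a predetermined rate. Plants grew in a greenhouse at 25° C. to 30° C.; effects were scored visually 3 weeks after application.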

Amaranthus retroflexus [3] = experiment: Test Example 4: herbicidal effect by soil treatment (symbol N); details: for N: Amaranthus retroflexus, herbicidal effect grade: 320 g/ha
Summary of the method: as §1

Galium spurium [4] = experiment: Test Example 4: herbicidal effect by soil treatment (symbol Q); details: for Q: Galium spurium, herbicidal effect grade: 320 g/ha
Summary of the method: as §1

corn = experiment: Test Example 4: effect on crop by soil treatment (symbol c); details: for c: corn, effect grade on crop: 320 g/ha
Summary of the method: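 Soil-treatment setup: crop and weed seeds were spot-sown into sterilized diluvial soil, then buried beneath approximately 1.5 cm of it, and the boxes were housed in a 25–30° C. greenhouse.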

rapeseed = experiment: Test Example 4: effect on crop by soil treatment (symbol g); details: for g: rapeseed, effect grade on crop: 320 g/ha
Summary of the method: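 Crop seed is sown in spots together with several weed species in a box of sterilized diluvial soil. It is covered by about 1.5 cm of soil and kept in a greenhouse held between 25° C. and 30° C.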

Avena fatua = experiment: Test Example 5: herbicidal effect by foliage application, plastic box (symbol I); details: 320 g/ha, 3 weeks after application
Summary of the method: (§2)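 Greenhouse foliar test: seedlings at 14 days, grown 25° C. to 30° C. in sterilized diluvial soil; compound applied as an aqueous dilution of an emulsion; response read 3 weeks after spraying.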

Lolium multiflorum Lam. = experiment: Test Example 5: herbicidal effect by foliage application, plastic box (symbol K); details: 320 g/ha, 3 weeks after application
Summary of the method: as §2

Apera spica-venti = experiment: Test Example 5: herbicidal effect by foliage application, plastic box (symbol L); details: 320 g/ha, 3 weeks after application
Summary of the method: as §2

Abutilon theophrasti = experiment: Test Example 5: herbicidal effect by foliage application, plastic box (symbol M); details: 320 g/ha, 3 weeks after application
Summary of the method: as §2

Amaranthus retroflexus [5] = experiment: Test Example 5: herbicidal effect by foliage application, plastic box (symbol N); details: 320 g/ha, 3 weeks after application
Summary of the method: as §2

Stellaria media = experiment: Test Example 5: herbicidal effect by foliage application, plastic box (symbol P); details: 320 g/ha, 3 weeks after application
Summary of the method: as §2

Galium spurium [6] = experiment: Test Example 5: herbicidal effect by foliage application, plastic box (symbol Q); details: 320 g/ha, 3 weeks after application
Summary of the method: as §2

Veronica persica = experiment: Test Example 5: herbicidal effect by foliage application, plastic box (symbol R); details: 320 g/ha, 3 weeks after application
Summary of the method: as §2

[7] = application herbicide amount 320 g/ha

Structure (SMILES) | Herbicidal effect grade, A: Echinochloa oryzacola Vasing. [1] | Herbicidal effect grade, B: Scirpus juncoides (Scirpus juncoides) | herbicidal effect on E, grade 0-5 (Cyperus difformis) | H: Echinochloa crus-galli var. crus-galli, herbicidal effect grade [2] | N: Amaranthus retroflexus, herbicidal effect grade (Amaranthus retroflexus [3]) | Q: Galium spurium, herbicidal effect grade (Galium spurium [4]) | c: corn, effect grade on crop (corn) | g: rapeseed, effect grade on crop (rapeseed) | I: Avena fatua, herbicidal effect (criteria 0-5) (Avena fatua) | K: Lolium multiflorum Lam., herbicidal effect (criteria 0-5) (Lolium multiflorum Lam.) | L: Apera spica-venti, herbicidal effect (criteria 0-5) (Apera spica-venti) | M: Abutilon theophrasti, herbicidal effect (criteria 0-5) (Abutilon theophrasti) | N: Amaranthus retroflexus, herbicidal effect (criteria 0-5) (Amaranthus retroflexus [5]) | P: Stellaria media, herbicidal effect (criteria 0-5) (Stellaria media) | Q: Galium spurium, herbicidal effect (criteria 0-5) (Galium spurium [6]) | R: Veronica persica, herbicidal effect (criteria 0-5) (Veronica persica) | other results
CC(CC1CC(O)=C(c2c(C)cc(C)cc2C)C1=O)=NOCc1cccc(C(F)(F)F)c1 (stereo not shown) [1-117] | 5 (Herbicidal ratio of 90% or more (almost completely withered)) | 3 (Herbicidal ratio of 40% or higher and lower than 70%) | 5 (Herbicidal ratio of 90% or more (almost completely withered)) | 5 (Herbicidal ratio of 90% or more (almost completely withered)) | 0 (Herbicidal ratio of 5% or lower (almost no effect)) | 0 (Herbicidal ratio of 5% or lower (almost no effect)) | 0 (Herbicidal ratio of 5% or lower (almost no effect)) | 2 (Herbicidal ratio of 20% or higher and lower than 40%) | 5 (Herbicidal ratio of 90% or more (almost completely withered)) | 5 (Herbicidal ratio of 90% or more (almost completely withered)) | 5 (Herbicidal ratio of 90% or more (almost completely withered)) | 1 (Herbicidal ratio of 5% or higher and lower than 20%) | 1 (Herbicidal ratio of 5% or higher and lower than 20%) | 3 (Herbicidal ratio of 40% or higher and lower than 70%) | 0 (Herbicidal ratio of 5% or lower (almost no effect)) | 3 (Herbicidal ratio of 40% or higher and lower than 70%) | –
CCCON=C(C)CC1CC(O)=C(c2c(C)cc(C)cc2C)C1=O (stereo not shown) [1-123] | 5 (Herbicidal ratio of 90% or more (almost completely withered)) | 3 (Herbicidal ratio of 40% or higher and lower than 70%) | 4 (Herbicidal ratio of 70% or higher and lower than 90%) | 5 (Herbicidal ratio of 90% or more (almost completely withered)) | 0 (Herbicidal ratio of 5% or lower (almost no effect)) | 0 (Herbicidal ratio of 5% or lower (almost no effect)) | 3 (Herbicidal ratio of 40% or higher and lower than 70%) | 3 (Herbicidal ratio of 40% or higher and lower than 70%) | 5 (Herbicidal ratio of 90% or more (almost completely withered)) | 5 (Herbicidal ratio of 90% or more (almost completely withered)) | 5 (Herbicidal ratio of 90% or more (almost completely withered)) | 4 (Herbicidal ratio of 70% or higher and lower than 90%) | 0 (Herbicidal ratio of 5% or lower (almost no effect)) | 3 (Herbicidal ratio of 40% or higher and lower than 70%) | 0 (Herbicidal ratio of 5% or lower (almost no effect)) | 4 (Herbicidal ratio of 70% or higher and lower than 90%) | –
CC(CC1CC(OC(=O)COc2ccccc2)=C(c2c(C)cc(-c3ccc(Cl)cc3)cc2C)C1=O)=NOCC(F)(F)F (mixture of isomers) [9-027] | – | 0 (Herbicidal ratio of 5% or lower (almost no effect)) | – | – | – | – | – | – | – | – | – | – | – | – | – | – | A (Echinochloa oryzacola Vasing.) herbicidal effect grade [1]: 5 (Herbicidal ratio of 90% or more (almost completely withered)); E herbicidal effect grade (Cyperus difformis; Table 24): 5 (Herbicidal ratio of 90% or more (almost completely withered)); Herbicidal effect grade, H: Echinochloa crus-galli var. crus-galli [2, 7]: 5 (Herbicidal ratio of 90% or more (almost completely withered)); Herbicidal effect grade, N: Amaranthus retroflexus (Amaranthus retroflexus [3]; [7]): 3 (Herbicidal ratio of 40% or higher and lower than 70%); Herbicidal effect grade, Q: Galium spurium (Galium spurium [4]; [7]): 0 (Herbicidal ratio of 5% or lower (almost no effect)); Effect on crop grade, c: corn (corn; [7]): 0 (Herbicidal ratio of 5% or lower (almost no effect)); Effect on crop grade, g: rapeseed (rapeseed; [7]): 1 (Herbicidal ratio of 5% or higher and lower than 20%); I: Avena fatua, herbicidal effect grade (Avena fatua): 5 (Herbicidal ratio of 90% or more (almost completely withered)); K: Lolium multiflorum Lam., herbicidal effect grade (Lolium multiflorum Lam.): 5 (Herbicidal ratio of 90% or more (almost completely withered)); L: Apera spica-venti, herbicidal effect grade (Apera spica-venti): 5 (Herbicidal ratio of 90% or more (almost completely withered)); M: Abutilon theophrasti, herbicidal effect grade (Abutilon theophrasti): 0 (Herbicidal ratio of 5% or lower (almost no effect)); N: Amaranthus retroflexus, herbicidal effect grade (Amaranthus retroflexus [5]): 0 (Herbicidal ratio of 5% or lower (almost no effect)); P: Stellaria media, herbicidal effect grade (Stellaria media): 3 (Herbicidal ratio of 40% or higher and lower than 70%); Q: Galium spurium, herbicidal effect grade (Galium spurium [6]): 3 (Herbicidal ratio of 40% or higher and lower than 70%); R: Veronica persica, herbicidal effect grade (Veronica persica): 2 (Herbicidal ratio of 20% or higher and lower than 40%)
CON=C(C)CC1CC(OC(=O)C(CSC)=NOC)=C(c2c(C)cc(C)cc2C)C1=O (stereo not shown) [1-098] | 5 (Herbicidal ratio of 90% or more (almost completely withered)) | 4 (Herbicidal ratio of 70% or higher and lower than 90%) | 5 (Herbicidal ratio of 90% or more (almost completely withered)) | 5 (Herbicidal ratio of 90% or more (almost completely withered)) | 4 (Herbicidal ratio of 70% or higher and lower than 90%) | 0 (Herbicidal ratio of 5% or lower (almost no effect)) | 5 (Herbicidal ratio of 90% or more (almost completely withered)) | 5 (Herbicidal ratio of 90% or more (almost completely withered)) | 5 (Herbicidal ratio of 90% or more (almost completely withered)) | 5 (Herbicidal ratio of 90% or more (almost completely withered)) | 5 (Herbicidal ratio of 90% or more (almost completely withered)) | 4 (Herbicidal ratio of 70% or higher and lower than 90%) | 0 (Herbicidal ratio of 5% or lower (almost no effect)) | 3 (Herbicidal ratio of 40% or higher and lower than 70%) | 0 (Herbicidal ratio of 5% or lower (almost no effect)) | 3 (Herbicidal ratio of 40% or higher and lower than 70%) | –
